Laboratory results taken from ChEMBL document CHEMBL5729239, “Aryl, heteroaryl, and heterocyclic compounds for treatment of immune and inflammatory disorders” (2022).
pIC50: −log10 of the molar value.

Target: Complement factor D (Homo sapiens, UniProt P00746)
Assay: Human Factor D Assay: Human Factor D (purified from human serum, Complement Technology, Inc.) at 80 nM final concentration is incubated with test compound at various concentrations for 5 min at room temperature in 50 mM Tris, 1M NaCl, pH 7.5. A synthetic substrate Z-L-Lys-SBzl and DTNB (Ellman's reagent) are added to final concentrations of 100 μM each. […] IC50 values are calculated by nonlinear regression of complement Factor D reaction rates as a function of test compound concentration.

Sequence of Complement factor D (P00746 whole entry): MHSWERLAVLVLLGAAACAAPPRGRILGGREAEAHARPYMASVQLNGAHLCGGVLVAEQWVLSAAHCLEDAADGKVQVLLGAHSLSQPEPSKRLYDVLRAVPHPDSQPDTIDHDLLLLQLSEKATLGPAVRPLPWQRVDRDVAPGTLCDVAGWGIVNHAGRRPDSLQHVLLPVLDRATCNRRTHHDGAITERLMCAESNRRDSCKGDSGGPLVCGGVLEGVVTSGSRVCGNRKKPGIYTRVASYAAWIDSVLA

Structure (SMILES)	pIC50
CC(=O)c1nn(CC(=O)N2C[C@H](F)C[C@H]2C(=O)O)c2ccc(-c3cnc(C)nc3)cc12	< 5.00
Cc1cccc(CC(O)[C@@H]2C[C@@H](F)CN2C(=O)Cn2cc(C(N)=O)c3cc(-c4cnc5cc(C)nn5c4)ccc32)n1 (stereo partly specified)	< 5.00
CC(=O)c1nn(CC(=O)N2C[C@H](F)C[C@H]2C(=O)NCCOC(F)(F)F)c2ccc(-c3cnc(C)nc3)cc12	> 6.00
CC(=O)c1nn(CC(=O)N2C[C@H](F)C[C@H]2C(=O)NCCC(C)(C)C)c2ccc(-c3cnc(C)nc3)cc12	> 6.00
NC(=O)c1cc(-c2ccco2)n(CC(=O)N2C[C@H](F)C[C@H]2C(=O)Nc2cccc(Br)n2)n1	> 6.00
CC(=O)c1nn(CC(=O)N2C[C@H](F)C[C@H]2C(=O)Nc2cccc(-c3ccccc3Cl)c2F)c2ccc(N3C[C@H]4CCCC[C@H]4C3)cc12	> 6.00
